Structures can show the parent of a compound that is named as a salt. Where two headings read alike, the source gives them in different places.

Data set [1] has as its system ventricular arhythmia caused by the aconitine. The experiment in a line: Aconitine test on the rat (delay of ventricular arhythmia caused by perfused aconitine). It counts as in vivo. The following applies: iv, read-out: Antiarhythmic activity, aconitine test on the rat, ED50. How it is done:
The principle of the method rests on the induction time of the ventricular arhythmia caused by the aconitine which is slowly fed by perfusion into rats. An antiarhythmic substance retards the appearance of the arhythmia and the delay is proportional to the activity of the substance.
Groups of 5 male rats were used. An individual anesthesia was effected (10% urethane: 1 g/kg/ip) in order to permit a catheterization of the vein of the penis. The electrocardiogram was recorded. At time T=0 the substance studied was injected in the form of an aqueous solution, at the rate of 2.5 ml of solution per kg in 30 seconds. At time T=60 seconds, say 30 seconds after the end of the injection, the aconitine was perfused at the rate of 20 μg per minute up to the appearance of supraventricular extra systoles. The time of perfusion of the aconitine was noted.
The results are expressed by an ED50, which is the dose of product, in mg/kg, increasing by 50% the time of perfusion of the aconitine in comparison with the perfusion time of aconitine for the control animals.

Data set [2] has as its system fibrillations caused by an inhalation of chloroform. The experiment in a line: Chloroform test on the mouse (protection against fibrillations caused by inhalation of chloroform). It counts as in vivo. The note with it: ip, 20 min, read-out: Antiarhythmic activity, chloroform test on the mouse, AD50. Here is the method: The product to be tested was administered intraperitoneally 20 minutes before chloroformic intoxication and the possible protection against the arhythmia was shown by recording of the electrocardiogram, which was effected from the appearance of the apnoea. The activity of the products is expressed by an AD50 (dose of product in mg/kg which protects 50% of the animals).

Data set [3] can be described thus: Acute toxicity to mice, intravenous. The following applies: in vivo, male mouse DC1, i.v., 3 days observation. An excerpt:
Toxicological properties of the compounds of formula (I): […]
The acute toxicities of the compounds of formula (I) (see results in the above Table) have been determined on the male mouse DC1 (Charles River), by the intravenous method. The LD50 have been calculated, after 3 days observation, by the cumulative method of J. J. Reed and H. Muench (Amer. J. Hyg., 27, 493, 1938).

Setting [4] is: dose which protects 50% of the animals, intraperitoneal, 20 minutes before chloroform.

Turning to `C=C[C@H]1CNCC[C@H]1CCC(O)c1ccnc2ccc(OC)cc12` (mixture of isomers) [Example 5, Mixture of 3-[3(R)-ETHENYL 4(R)-PIPERIDYL]-1-(6-METHOXY-4-QUINOLYL)-1-(R)-PROPANOL and 3-[3(R)-ETHENYL 4(R)-PIPERIDYL]-1-(6-METHOXY-4-QUINOLYL)-1(S)-PROPANOL], the ED50 was determined as 0.44 mg/kg in data set [1] and 3 mg/kg in data set [2]. Further, the median lethal dose (LD50) (usually the dose expected to kill half of the subjects tested) at 72 h in data set [3] came to 21.5 mg/kg.

With `OC(CCC1CCNCC1)c1cc(-c2ccccc2)nc2ccccc12` (racemic) [Example 4, 1-(2-PHENYL-4-QUINOLYL)-3-(4-PIPERIDYL)-1-PROPANOL], the results for the ED50 in data set [1] and in data set [2] were 1.22 mg/kg and 2.5 mg/kg, respectively. In data set [3], this compound returned a median lethal dose (LD50) at 72 h of 21 mg/kg.

In the case of `CC(C)(C)c1cc(C(O)CCC2CCNCC2)c2ccccc2n1` (racemic) [Example 12, 1-[2-(1,1-DIMETHYL-ETHYL)-4-QUINOLYL]-3-(4-PIPERIDYL)-1-PROPANOL], the ED50 in data set [1] came out at 0.8 mg/kg. Moreover, in data set [3], the LD50 at 72 h is 26 mg/kg.

Consider `CC[C@H]1CNCC[C@H]1CC[C@@H](O)c1ccnc2ccc(OC)cc12` [8 (1(R)-propanol isomer)], for which the ED50 in data set [1] came to 0.65 mg/kg; in data set [2] (setting [4]) it was 2.5 mg/kg. Also, the LD50 at 72 h in data set [3] is 29 mg/kg.

For `CC[C@H]1CNCC[C@H]1CC[C@H](O)c1ccnc2ccc(OC)cc12` [8 (1(S)-propanol isomer)], the ED50 in data set [1] is 0.58 mg/kg; in data set [2] (setting [4]) it was 2.5 mg/kg. This compound returned an LD50 at 72 h in data set [3] of 17 mg/kg.

In the case of `C=C[C@H]1CN(C)CC[C@H]1CC[C@H](O)c1ccnc2ccc(OC)cc12` [9 (3(R)-ethenyl isomer)], the ED50 in data set [1] amounted to 1 mg/kg; in data set [2] (setting [4]), 5 mg/kg. The compound further yielded a 50% lethal dose (LD50) at 72 h in data set [3] of 19 mg/kg.

As for `C=C[C@@H]1CN(C)CC[C@H]1CC[C@H](O)c1ccnc2ccc(OC)cc12` [9 (3(S)-ethenyl isomer)], the ED50 in data set [1] is 1.4 mg/kg; in data set [2] (setting [4]), greater than 5 mg/kg. The same compound yielded a median lethal dose (LD50) at 72 h in data set [3] of 33 mg/kg.

`C=C[C@H]1CNCC[C@H]1CC[C@H](O)c1ccnc2ccc(OC)cc12` [Example 6, 3-[3(R)-ETHENYL 4(R)-PIPERIDYL]-1-(6-METHOXY-4-QUINOLYL)-1(S)-PROPANOL]: the ED50 in data set [1] came to 0.43 mg/kg; in data set [2] it was 3 mg/kg. This compound registered a median lethal dose (LD50) at 72 h in data set [3] of 20.3 mg/kg.

On to `C=C[C@H]1CNCC[C@H]1CC[C@@H](O)c1ccnc2ccc(OC)cc12` [Example 7, 3-[3(R)-ETHENYL 4(R)-PIPERIDYL]-1-(6-METHOXY-4-QUINOLYL)-1(R)-PROPANOL], for which the ED50 was found to be 0.45 mg/kg in data set [1] and 3 mg/kg in data set [2]. The LD50 at 72 h in data set [3] was 33 mg/kg.

Regarding `C=C[C@H]1C[N@@]2CC[C@H]1C[C@@H]2[C@@H](O)c1ccnc2ccc(OC)cc12` [Quinidine sulfate, reference compound], the results for the ED50 in data set [1] and in data set [2] (setting [4]) were 7.5 mg/kg and 18 mg/kg, respectively. Also, in data set [3], the LD50 at 72 h was found to be 60 mg/kg.

(Values after patent US4613607A, “Medicaments based on derivatives of 1-(4-quinolyl)-2-(4-piperidyl)-ethanol or 1-(4-quinolyl)-3-(4-piperidyl)-propanol” (Pharmuka Laboratoires, priority 1980, dated 1986).)
